What all share (type): cell-based
The nature of series [1]: RSV HEP2-CC50-384-V2 (per Ex. V). Particulars: human.
Series [2] relates to Human Rhinovirus 1B (HRV1B) in H1-HeLa cells. Put plainly: H1-HeLa HRV-CTG EC50, HRV1B (Example Z). Particulars: Rhinovirus A, 96 h, MOI 0.5, 4 days, Celltiter-Glo, read-out: HRV 1B HELA EC50 (nM) (per Ex. Z). The source says: (§1) H1-Hela cell line (ATCC, Manassas, VA, Cat #CRL-1958) was maintained in Dulbecco's […] (DMEM) (Corning, New York, NY, Cat #15-018CM) supplemented with 10% fetal bovine serum (FBS) (Hyclone, Logan, UT, Cat #SH30071-03), and 1× Penicillin-Streptomycin-L-Glutamine (Coming, New York, NY, Cat #30-009-C1). Cells were passaged 2 times per week to maintain sub-confluent densities and were used for experiments at passage 5-30. The Human Rhinovirus 1B (HRV1B) (ATCC, Manassas, VA, Cat #VR-1645), Human Rhinovirus 14 (HRV14) (ATCC, Manassas, VA, Cat #VR-284), and Human Rhinovirus 16 (HRV16) (ATCC, Manassas, VA, Cat #BR-283) was obtained through ATCC. Viral infection was monitored by determining viability of H1-HeLa cells as described below.
(§2) Test molecules are prepared in 100% DMSO in 384-well polypropylene plates (Greiner, Monroe, NC, Cat #784201) with 8 compounds per plate in grouped replicates of 4 at 10 serially diluted concentrations (1:3). The serially diluted compounds were transferred to low dead volume Echo plates (Labcyte, Sunnyvale, CA, Cat #LP-0200).
(§3) The test compounds were spotted to 384-well assay plates (Greiner, Monroe, NC, Cat #781091) at 200 nL per well using an Echo acoustic dispenser (Labcyte, Sunnyvale, CA). H1-HeLa cells were harvested and suspended in DMEM (supplemented with 2% FBS and 1× Penicillin-Streptomycin-L-Glutamine) and seeded to the pre-spotted assay plates at 5,000 cells per well in 30 μL. HRV1B, HRV14, and HRV16 was diluted in DMEM (supplemented with 2% FBS and 1× Penicillin-Streptomycin-L-Glutamine) at 97.1 million Infectious Units (IU) per mL, 151 million IU per mL and 221 million IU per mL respectively. 10 μL of virus per well was added to the assay plates containing cells and compounds, for an MOI of 0.5, 1.0, and 0.25 respectively. The assay plates were incubated for 4 days at 37° C. and 5% CO2. At the end of incubation, Celltiter-Glo (Promega, Madison, WI, Cat #G7573) was prepared. The assay plates and Celltiter-Glo reagent were equilibrated to room temperature for at least 15 minutes. 40 μL per well of Celltiter-Glo reagent was added and the plates were incubated at room temperature for 15 minutes before reading the luminescence signal on an EnVision multimode plate reader (Perkin Elmer, Waltham, MA). Rupintrivir was used as positive control and DMSO was used as negative control. Values were normalized to the positive and negative controls (as 0% and 100% replication, respectively) and data was fitted using non-linear regression analysis by Gilead's dose response tool. The EC50 value for each compound was defined as the concentration reducing viral replication by 50%.
For orientation: Cellular ATP, detected with luciferase, serves as a proxy for viable cell number.

The nature of series [3]: RSV NHBE CC50 384 V2 (per Ex. U). Particulars: human.
Series [4] concerns Respiratory syncytial virus recombinant with luciferase (RSV-Luc5) in NHBE cells. Put plainly: NHBE RSV-Luc5 384-well assay (EC50 RSVFLUC NHBE-384, Example U). Particulars: human respiratory syncytial virus, 72 h, read-out: RSV FLuc NHBE 384 EC50 (v2) (nM) (per Ex. U). In outline:
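Passage-2 NHBE cells (5,000/well) on pre-spotted compounds, 10-point 1:3 series, infected with RSV-Luc5 at MOI 1 and incubated 3 days at 37° C. Replication read by One-Glo luminescence, normalized to remdesivir (0%) and DMSO (100%); EC50 = concentration reducing replication by 50%, by non-linear regression.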

In series [5] the test system is Human Rhinovirus 14 (HRV14) in H1-HeLa cells. Put plainly: H1-HeLa HRV-CTG EC50, HRV14 (Example Z). Particulars: Rhinovirus B, HRV14, 96 h, MOI 1.0, 4 days, Celltiter-Glo, read-out: HRV14 HELA EC50 (nM) (per Ex. Z).
Description: as §1, §2, §3

Each structure is given as a SMILES string.

The term CC50 denotes the concentration giving 50% cytotoxicity. Low readings indicate harm at low concentration, high ones better tolerance by the cells. For orientation: EC50 means the concentration needed to bring the measured effect to its halfway point.

Take `CCCCCCCCCCCCCCCCCCOC[C@H](COP(=O)(O)OC[C@@]1(C#N)O[C@@H](c2ccc3c(N)ncnn23)[C@H](O)[C@@H]1O)Oc1ccc(C#N)c(OC(C)C)c1` [Compound 23, ((2R,3S,4R,5S)-5-(4-aminopyrrolo[2,1-f][1,2,4]triazin-7-yl)-2-cyano-3,4-dihydroxytetrahydrofuran-2-yl)methyl ((R)-2-(4-cyano-3-isopropoxyphenoxy)-3-(octadecyloxy)propyl) hydrogen phosphate]: the CC50 at 3 days in series [1] is > 42000 nM; in series [3], 5400 nM. Further, the half-maximal effective concentration (EC50) in series [2] was 4 nM; in series [4], 4 nM; in series [5] it was 9 nM.

On to `CCCCCCCCCCCCCCCCCCC[C@H](COP(=O)(O)OC[C@@]1(C#N)O[C@@H](c2ccc3c(N)ncnn23)[C@H](O)[C@@H]1O)OCc1cc(F)cc(C#N)c1` [Compound 25, ((2R,3S,4R,5S)-5-(4-aminopyrrolo[2,1-f][1,2,4]triazin-7-yl)-2-cyano-3,4-dihydroxytetrahydrofuran-2-yl)methyl ((R)-2-((3-cyano-5-fluorobenzyl)oxy)henicosyl) hydrogen phosphate], for which the CC50 at 3 days in series [1] was > 50000 nM; in series [3], 31000 nM. For the same compound, the EC50 in series [2] came to 45 nM; in series [4] it was 169 nM; in series [5] it was 103 nM.

Regarding `CCCCCCCCCCCCCCCCCCC[C@H](COP(=O)(O)OC[C@@]1(C#N)O[C@@H](c2ccc3c(N)ncnn23)[C@H](O)[C@@H]1O)OCc1ccc(C#N)c(OC(C)C)c1` [Compound 28, ((2R,3S,4R,5S)-5-(4-aminopyrrolo[2,1-f][1,2,4]triazin-7-yl)-2-cyano-3,4-dihydroxytetrahydrofuran-2-yl)methyl ((R)-2-((4-cyano-3-isopropoxybenzyl)oxy)henicosyl) hydrogen phosphate], the half-maximal cytotoxic concentration (CC50) at 3 days in series [1] amounted to 30600 nM; in series [3] it was 7560 nM. In addition, the EC50 in series [2] was found to be 36 nM; in series [4], 46 nM; in series [5] it was 47 nM.

In the case of `CCCCCCCCCCCCCCCCCCC[C@H](COP(=O)(O)OC[C@@]1(C#N)O[C@@H](c2ccc3c(N)ncnn23)[C@H](O)[C@@H]1O)OCc1ccc(-n2cncn2)c(C#N)c1` [Compound 30, ((2R,3S,4R)-5-(4-aminopyrrolo[2,1-f][1,2,4]triazin-7-yl)-2-cyano-3,4-dihydroxytetrahydrofuran-2-yl)methyl ((R)-2-((3-cyano-4-(1H-1,2,4-triazol-1-yl)benzyl)oxy)henicosyl) hydrogen phosphate], the CC50 at 3 days in series [1] turned out to be 33100 nM; in series [3], 1720 nM. Moreover, the EC50 in series [2] turned out to be 7 nM; in series [4], 14 nM; in series [5], 12 nM.

Regarding `CCCCCCCCCCCCCCCCCCCC[C@H](COP(=O)(O)OC[C@@]1(C#N)O[C@@H](c2ccc3c(N)ncnn23)[C@H](O)[C@@H]1O)OCc1cc(F)cc(C#N)c1` [Compound 34, ((2R,3S,4R)-5-(4-aminopyrrolo[2,1-f][1,2,4]triazin-7-yl)-2-cyano-3,4-dihydroxytetrahydrofuran-2-yl)methyl ((R)-2-((3-cyano-5-fluorobenzyl)oxy)docosyl) hydrogen phosphate], the 50% cytotoxic concentration (CC50) at 3 days in series [1] was > 43200 nM; in series [3] it was 7250 nM. The values for the 50% effective concentration (EC50) in series [2], in series [4] and in series [5] were 281 nM, 272 nM and 276 nM, respectively.

As to `CCCCCCCCCCCCCCCCC[C@H](COP(=O)(O)OC[C@@]1(C#N)O[C@@H](c2ccc3c(N)ncnn23)[C@H](O)[C@@H]1O)OCc1cc(F)cc(C#N)c1` [Compound 36, ((2R,3S,4R,5S)-5-(4-aminopyrrolo[2,1-f][1,2,4]triazin-7-yl)-2-cyano-3,4-dihydroxytetrahydrofuran-2-yl)methyl ((R)-2-((3-cyano-5-fluorobenzyl)oxy)nonadecyl) hydrogen phosphate], the CC50 at 3 days in series [1] is > 50000 nM; in series [3], 2740 nM. Also, the EC50 is 102 nM in series [2], 51 nM in series [4] and 113 nM in series [5].

In the case of `CCCCCCCCCCCCCCCCCC[C@@H](COP(=O)(O)OC[C@@]1(C#N)O[C@@H](c2ccc3c(N)ncnn23)[C@H](O)[C@@H]1O)OCc1cc(F)cc(C#N)c1` [Compound 37, ((2R,3S,4R)-5-(4-aminopyrrolo[2,1-f][1,2,4]triazin-7-yl)-2-cyano-3,4-dihydroxytetrahydrofuran-2-yl)methyl ((S)-2-((3-cyano-5-fluorobenzyl)oxy)icosyl) hydrogen phosphate], the 50% cytotoxic concentration (CC50) at 3 days in series [1] is > 38100 nM; in series [3] it was 3110 nM. The 50% effective concentration (EC50) was determined as 332 nM in series [2], 82 nM in series [4] and 183 nM in series [5].

In the case of `CCCCCCCCCCCCCCCCCCC[C@H](COP(=O)(O)OC[C@@]1(C#N)O[C@@H](c2ccc3c(N)ncnn23)[C@H](O)[C@@H]1O)Oc1ccc(C#N)c(OC(C)C)c1` [Compound 38, ((2R,3S,4R,5S)-5-(4-aminopyrrolo[2,1-f][1,2,4]triazin-7-yl)-2-cyano-3,4-dihydroxytetrahydrofuran-2-yl)methyl ((R)-2-(4-cyano-3-isopropoxyphenoxy)henicosyl) hydrogen phosphate], the values for the CC50 at 3 days in series [1] and in series [3] were 35300 nM and 7990 nM, respectively. The EC50 amounted to 12 nM in series [2], 25 nM in series [4] and 28 nM in series [5].

`CCCCCCCCCCCCCCCCCCC[C@H](COP(=O)(O)OC[C@@]1(C#N)O[C@@H](c2ccc3c(N)ncnn23)[C@H](O)[C@@H]1O)Oc1cc(OC)c(C#N)c(OC)c1` [Compound 39, ((2R,3S,4R,5S)-5-(4-aminopyrrolo[2,1-f][1,2,4]triazin-7-yl)-2-cyano-3,4-dihydroxytetrahydrofuran-2-yl)methyl ((R)-2-(4-cyano-3,5-dimethoxyphenoxy)henicosyl) hydrogen phosphate]: the CC50 at 3 days in series [1] is > 41400 nM; in series [3], 6460 nM. The EC50 in series [2] was found to be 18 nM; in series [4] it was 51 nM; in series [5], 34 nM.

As for `CCCCCCCCCCCCCCCCCCOCC(COc1cc(F)cc(C#N)c1)COP(=O)(O)OC[C@@]1(C#N)O[C@@H](c2ccc3c(N)ncnn23)[C@H](O)[C@@H]1O` (stereo partly drawn) [Compound 43, ((2R,3S,4R,5S)-5-(4-aminopyrrolo[2,1-f][1,2,4]triazin-7-yl)-2-cyano-3,4-dihydroxytetrahydrofuran-2-yl)methyl (3-(3-cyano-5-fluorophenoxy)-2-((octadecyloxy)methyl)propyl) hydrogen phosphate], the cytotoxic concentration (CC50) at 3 days in series [1] was > 30300 nM; in series [3], 11900 nM. Besides, the concentration for a half-maximal effect (EC50) was 36 nM in series [2], 98 nM in series [4] and 75 nM in series [5].

For the compound `CCCCCCCCCCCCCCCCCCCC[C@H](COP(=O)(O)OC[C@@]1(C#N)O[C@@H](c2ccc3c(N)ncnn23)[C@H](O)[C@@H]1O)Oc1cccc(C#N)c1` [Compound 51, ((2R,3S,4R,5S)-5-(4-aminopyrrolo[2,1-f][1,2,4]triazin-7-yl)-2-cyano-3,4-dihydroxytetrahydrofuran-2-yl)methyl ((R)-2-(3-cyanophenoxy)docosyl) hydrogen phosphate], the CC50 at 3 days in series [1] is > 46200 nM; in series [3], 8330 nM. Further, the 50% effective concentration (EC50) in series [2] came to 33 nM; in series [4], 56 nM; in series [5] it was 49 nM.
